Source: patent US11472766B2, “Lipid nanoparticle composition” (Suzhou Abogen Biosciences Co., Ltd., priority 2020, dated 2022)

Tests used:
[1] = system: human erythropoietin (hEPO) mRNA; assay: Animal study: hEPO expression after tail vein injection of LNPs encapsulating hEPO mRNA (serum ELISA); format: in vivo; details: hEPO level, female ICR mice, 0.5 mg/kg, 6 hours post administration; for Expression at 6 h (μg/ml): class symbols, Table 3
Method: Lipid nanoparticles comprising compounds 1-10 encapsulating human erythropoietin (hEPO) mRNA were systemically administered to 6-8 week old female ICR mice (Xipuer-Bikai, Shanghai) at 0.5 mg/kg dose by tail vein injection and mice blood were sampled at specific time points (e.g., 6 hours) post administration. In addition to the aforementioned tested groups, lipid nanoparticles comprising dilinoleylmethyl-4-dimethylaminobutyrate (DLin-MC3-DMA, usually abbreviated to MC3) encapsulating hEPO mRNA were similarly administered at the same dose to age and gender comparative groups of mice as a positive control.
Mice were euthanized by CO2 overdoses after the last sampling time point. Serum were separated from total blood by centrifugation at 5000 g for 10 minutes at 4° C., snap-frozen and stored at −80° C. for analysis. ELSA assay were carried out using a commercial kit (DEP00, R&D systems) according to manufacturer's instructions.
Characteristics of tested lipid nanoparticles, including hEPO expression levels (μg/ml) measured from the tested group are listed the tables below and plotted in FIG. 2.

[2] = Encapsulation efficiency of lipid nanoparticles (Quant-it Ribogreen RNA quantification assay); format: physicochemical; details: LNP encapsulating hEPO mRNA
Method: (§1) Briefly, a cationic lipid provided herein, DSPC, cholesterol, and PEG-lipid were solubilized in ethanol at a molar ratio of 50:10:38.5:1.5, and mRNA were diluted in 10 to 50 mM citrate buffer, pH=4. The LNPs were prepared at a total lipid to mRNA weight ratio of approximately 10:1 to 30:1 by mixing the ethanolic lipid solution with the aqueous mRNA solution at a volume ratio of 1:3 using a microfluidic apparatus, total flow rate ranging from 9-30 mL/min. Ethanol were thereby removed and replaced by DPBS using dialysis. Finally, the lipid nanoparticles were filtered through a 0.2 μm sterile filter.
(§2) Lipid nanoparticle size were determined by dynamic light scattering using a Malvern Zetasizer Nano ZS (Malvern UK) using a 173° backscatter detection mode. The encapsulation efficiency of lipid nanoparticles were determined using a Quant-it Ribogreen RNA quantification assay kit (Thermo Fisher Scientific, UK) according to the manufacturer's instructions.

[3] = Lipid nanoparticle size by dynamic light scattering (Malvern Zetasizer Nano ZS); format: physicochemical; details: LNP: cationic lipid/DSPC/cholesterol/PEG-lipid 50:10:38.5:1.5, hEPO mRNA
Method: as §1, §2

| Encapsulation Efficiency ([2]; Table 3) | polydispersity ([3]; Table 3) | size nm ([3]; Table 3) | Encapsulation Efficiency ([2]; Table 2) | polydispersity ([3]; Table 2) | size nm ([3]; Table 2) | SMILES | Expression at 6 h (μg/ml) [1] | Expression at 6 h ([1]; Table 2) |
| --- | --- | --- | --- | --- | --- | --- | --- | --- |
| 99.2% | 0.081 | 66.39 nm | – | – | – | CCCCCCCCC(CCCCCC)C(CCC)OC(=O)CCCCCN(CCCCCC(=O)OC(CCC)C(CCCCCC)CCCCCCCC)CCN(CCO)C1CCC1 (stereo not drawn) [Compound 40] | C (≥0.1 and <1) | – |
| 88.00% | 0.129 | 70.33 nm | – | – | – | CCCCCCCCC(CCCCCC)CC(=O)NCCCCCN(CCCCCOC(=O)CC(CCCCCC)CCCCCCCC)CCN(CCO)C1CCCCCC1 (stereo not drawn) [Compound 132] | A (≥2) | – |
| 96.9% | 0.101 | 85.98 nm | – | – | – | CCCCCCCCC(CCCCCC)COC(=O)CCCCCN(CCCCCC(=O)OCC(CCCCCC)CCCCCCCC)CCN1CCC(O)CC1 (stereo not drawn) [Compound 96] | D (<0.1) | – |
| 91.71% | 0.096 | 54.94 nm | – | – | – | CCCCCCCCC(CCCCCCCC)COC(=O)CCCCCN(CCCCCC(=O)OCC(CCCCCCCC)CCCCCCCC)CCN(CCO)C1CC(c2ccccc2)C1 (stereo not drawn) [Compound 76] | C (≥0.1 and <1) | – |
| 92.4% | 0.091 | 44.47 nm | – | – | – | CCCCCCCCC(CCCCCCCC)COC(=O)CCCCCN(CCCCCC(=O)OCC(CCCCCCCC)CCCCCCCC)CCN(CCO)C1CCC(F)(F)CC1 [Compound 78] | C (≥0.1 and <1) | – |
| 84.1% | 0.181 | 84.93 nm | – | – | – | CCCCCCCCC(CCCCCC)COC(=O)CCCCCN(CCCCCC(=O)OCC(CCCCCC)CCCCCCCC)CCN(CCOC(C)=O)C1CCC1 (stereo not drawn) [Compound 64] | D (<0.1) | – |
| 95.70% | 0.054 | 69.18 nm | – | – | – | CCCCCCCCCCC(CCCCCCCCCC)COC(=O)CCCCCN(CCCCCC(=O)OCC(CCCCCCCCCC)CCCCCCCCCC)CCN(CCO)C1CCC1 [Compound 52] | A (≥2) | – |
| – | – | – | 98.5% | 0.042 | 79.8 nm | CCCCC/C=C\C/C=C\CCCCCCCCC(CCCCCCCC/C=C\C/C=C\CCCCC)OC(=O)CCCN(C)C [MC3, dilinoleylmethyl-4-dimethylaminobutyrate, reference compound] | – | 2.35 µg/mL |
| 97.2% | 0.051 | 102.7 nm | – | – | – | CCCCCCCCC(CCCCCC)COC(=O)CCCCCN(CCCCCC(=O)OCC(CCCCCC)CCCCCCCC)CCN(C)C1CCC(O)CC1 (stereo not drawn) [Compound 54] | D (<0.1) | – |
| 95.9% | 0.071 | 80.46 nm | – | – | – | CCCCCCCCC(CCCCCC)COC(=O)CCCCCN(CCCCCC(=O)OCC(CCCCCC)CCCCCCCC)CCN(CCCCCCO)C1CCC1 (stereo not drawn) [Compound 30] | B (≥1 and <2) | – |
| 94.41% | 0.054 | 67.57 nm | – | – | – | CCCCCCCCC(CCCCCCCC)COC(=O)COCCOCCN(CCOCCOCC(=O)OCC(CCCCCCCC)CCCCCCCC)CCN(CCO)C1CCC1 [Compound 103] | C (≥0.1 and <1) | – |
| 97.2% | 0.285 | 82.43 nm | – | – | – | CCCCCCCCC(CCCCCC)COC(=O)CCCCCN(CCCCCC(=O)OCC(CCCCCC)CCCCCCCC)CCN1CCC(O)C1 (stereo not drawn) [Compound 95] | D (<0.1) | – |
| 96.8% | 0.204 | 66.69 nm | – | – | – | CCCCCCCCC(CCCCCC)COC(=O)CCCCCN(CCCCCC(=O)OCC(CCCCCC)CCCCCCCC)CCN1CC(O)C1 (stereo not drawn) [Compound 97] | D (<0.1) | – |
| 97.3% | 0.068 | 74.8 nm | – | – | – | CCCCCCCCCCC(CCCCCC)COC(=O)CCCCCCN(CCCCCCC(=O)OCC(CCCCCC)CCCCCCCCCC)CCN(CCO)C1CCC1 (stereo not drawn) [Compound 43] | B (≥1 and <2) | – |
| 93.9% | 0.14 | 60.64 nm | – | – | – | CCCCCCCCC(CCCCCC)COC(=O)CCCCCN(CCCCCC(=O)OCC(CCCCCC)CCCCCCCC)CCN(CCO)C1CCC(F)(F)CC1 (stereo not drawn) [Compound 23] | B (≥1 and <2) | – |
| 95.3% | 0.103 | 62.38 nm | – | – | – | CCCCCCCCCCCCC(CCCCCC)COC(=O)CCCN(CCCC(=O)OCC(CCCCCC)CCCCCCCCCCCC)CCN(CCO)C1CCC1 (stereo not drawn) [Compound 47] | C (≥0.1 and <1) | – |
| 97.6% | 0.105 | 86.23 nm | – | – | – | CCCCCCCCC(CCCCCC)COC(=O)CCCCCN(CCCCCC(=O)OCC(CCCCCC)CCCCCCCC)C1CCN(CCO)CC1 (stereo not drawn) [Compound 98] | D (<0.1) | – |
| 98.70% | 0.111 | 77.12 nm | – | – | – | CCCCCCCCC(CCCCCC)CNC(=O)CCCCCN(CCCCCC(=O)OCC(CCCCCC)CCCCCCCC)CCN(CCO)C1CCCCC1 (stereo not drawn) [Compound 127] | A (≥2) | – |
| 91.20% | 0.131 | 63.13 nm | – | – | – | CCCCCCCCC(CCCCCC)CNC(=O)CCCCCN(CCCCCC(=O)NCC(CCCCCC)CCCCCCCC)CCN(CCO)C1CCCCC1 (stereo not drawn) [Compound 129] | A (≥2) | – |
| 95.14% | 0.174 | 76.97 nm | – | – | – | CCCCCCCCC(CCCCCC)CNC(=O)CCCCCN(CCCCCC(=O)OCC(CCCCCC)CCCCCCCC)CCN(CCO)C1CCC1 (stereo not drawn) [Compound 106] | A (≥2) | – |
| 78.3% | 0.06 | 58.74 nm | – | – | – | CCCCCCCCC(CCCCCCCC)COC(=O)CCCCCN(CCCCCC(=O)OCC(CCCCCCCC)CCCCCCCC)CCN(CCC)C1CCCCC1O (stereo not drawn) [Compound 69] | D (<0.1) | – |
| 30.1% | 0.285 | 264.9 nm | – | – | – | CCCCCCCCNC(=O)CCCCCN(CCCCCC(=O)NCCCCCCCC)CCN(CCO)C1CCCCC1 [Compound 123] | A (≥2) | – |
| 96.7% | 0.109 | 95.51 nm | – | – | – | CCCCCCCCC(CCCCCC)COC(=O)CCCCCN(CCCCCC(=O)OCC(CCCCCC)CCCCCCCC)CCN(CC)C1CCC(O)CC1 (stereo not drawn) [Compound 55] | C (≥0.1 and <1) | – |
| 18.18% | 0.209 | 57.6 nm | – | – | – | CCCCCCCCC(CCCCCC)COC(=O)CCCCCC(CCCCCC(=O)OCC(CCCCCC)CCCCCCCC)CN(CCO)C1CCCCCCC1 (stereo not drawn) [Compound 17] | D (<0.1) | – |
| 92.50% | 0.097 | 79.92 nm | – | – | – | CCCCCCCCC(CCCCCC)CC(=O)NCCCCCN(CCCCCOC(=O)CC(CCCCCC)CCCCCCCC)CCN(CCO)C1CCCC1 (stereo not drawn) [Compound 130] | A (≥2) | – |
| 95.9% | 0.111 | 49.51 nm | – | – | – | CCCCCCCCC(CCCCCC)CNC(=O)CCCCCN(CCCCCC(=O)NCC(CCCCCC)CCCCCCCC)CCN(CCO)C1CCCCCC1 (stereo not drawn) [Compound 112] | C (≥0.1 and <1) | – |
| 83.4% | 0.087 | 65.04 nm | – | – | – | CCCCCCCCC(CCCCCC)COC(=O)CCCCCN(CCCCCC(=O)OCC(CCCCCC)CCCCCCCC)CCN(CCCCC)C1CCC(O)CC1 (stereo not drawn) [Compound 61] | A (≥2) | – |
| 80.00% | 0.064 | 79.11 nm | – | – | – | CCCCCCCCC(CCCCCC)CC(=O)NCCCCCN(CCCCCOC(=O)CC(CCCCCC)CCCCCCCC)CCN(CCO)C1CCCCC1 (stereo not drawn) [Compound 131] | A (≥2) | – |
| 95.64% | 0.11 | 106.9 nm | – | – | – | CCCCCCCCC(CCCCCC)CNC(=O)CCCCCN(CCCCCC(=O)NCC(CCCCCC)CCCCCCCC)CCN(CCO)C1CCC1 (stereo not drawn) [Compound 107] | A (≥2) | – |
| 100.2% | 0.1 | 66.06 nm | – | – | – | CCCCCCCCC(CCCCCC)COC(=O)CCCCCN(CCCCCC(=O)OCC(CCCCCC)CCCCCCCC)CCN(C1CCCCC1)C1CCC(O)CC1 (stereo not drawn) [Compound 99] | C (≥0.1 and <1) | – |
